Measured values as given in patent publication US20180312493A1, “Antibiotic Compounds, Pharmaceutical Formulations Thereof And Methods And Uses Therefor” (Simon Fraser University, priority 2015, published 2018).
In brackets after ≈: the same amount, converted by molar mass. Read-outs that look alike come from different tables or passages of the source.

Key:
MRSA Pyk = biological target: T1, MRSA Pyk (Staphylococcus aureus, UniProt Q6GG09); test: MRSA pyruvate kinase (PK) activity, continuous LDH-coupled assay; assay type: biochemical, methicillin resistant S. aureus (MRSA252)
T1 construct: made in house; host or cells: E. coli BL-21 (DE3)
Procedure, shortened: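 Activity monitored continuously as absorbance change at 340 nm from NADH oxidation via coupled lactate dehydrogenase, reactions started with 15 nM recombinant His-tagged PK (MRSA or human isoform) and run at 30° C for up to 5 min. Ki derived by varying inhibitor (0-400 nM) and PEP (2-20 mM) at 2 mM ADP; IC50 by four-parameter fitting.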

S. aureus (ATCC29213) = test: In vitro susceptibility, broth microdilution (MIC); assay type: cell-based; details: Staphylococcus aureus
Procedure, shortened: (§1)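 CLSI 2-fold serial broth microdilution; K. pneumoniae C238 grown in L-broth, S. aureus ATCC 29213 in Mueller Hinton broth, plates incubated 18–24 h at 37 °C. MIC taken as lowest concentration giving complete growth inhibition by OD600 versus compound-free wells, background-subtracted.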

K. pneumoniae (C238) = test: In vitro susceptibility, broth microdilution (MIC); assay type: cell-based; details: Klebsiella pneumoniae; K. pneumoniae (C238); read-out: Antimicrobial activity (MIC) K. pneumoniae
Procedure, shortened: as §1

VRE#2 (2010A) = test: In vitro susceptibility, broth microdilution (MIC); assay type: cell-based, vancomycin resistant Enterococci; details: read-out: Antimicrobial activity (MIC) VRE#2
Excerpt: (§2) Epidemic methicillin resistant S. aureus (MRSA) strain sequenced at the Sanger Centre (MRSA252, NRS71) was obtained from NARSA (Network on Antimicrobial Resistance in S. aureus). Methicillin sensitive S. aureus (ATCC 29213 and 25923), methicillin resistant S. aureus (ATCC BAA-1762), and Salmonella typhimurium (ATCC BAA-185) were obtained from ATCC, The Global Bioresource Center. Acinetobacter baumannii (ATCC 19606 and ATCC 17978), Klebsiella pneumonia (C238), vancomycin resistant Enterococci #2 (2010A) (VRE#2), MRSA (USA400, MW2) and Pseudomonas aeruginosa (PA0-1) were obtained from the laboratory of Dr B. B. Finlay at the University of British Columbia (Vancouver, Canada).
(§3) The antimicrobial activities of PK inhibitor candidates were determined using the 96-well microtiter standard 2-fold serial broth microdilution method as described by CLSI (formerly NCCLS) with the various gram-positive and gram-negative bacteria species mentioned above. Bacteria from a single colony were grown, overnight in either BHI Broth (VRE), mueller hinton broth (S. aureus 29213; MRSA USA400, A. baumannii 19606, MRSA BAA-1762) or L-broth (P. aeruginosa, S. typhimurium, K. pneumonia and A. baumannii 17978). Each compound was prepared in DMSO with 2-fold serial dilutions to give a final concentration of, 0.031 to 64 μg/ml. 10 μl of the compound solution was then added, in duplicate, to either, 190 μl of cation adjusted mueller hinton broth (CAMHB) or 190 μl CAMHB containing ˜2.5×10^5 CFU/ml of bacteria (final compound concentration 0.031 to 64 μg/ml). Culture plates were incubated for 18-24 h at 37° C., and optical density at 600 nm (OD600) was measured using a Benchmark Plus™ microplate spectrophotometer (Bio-Rad™). The absorbance control values for the series containing CAMHB and inhibitor were subtracted as background from the corresponding infected wells. Minimal inhibitory concentration (MIC) was defined as the lowest concentration of test compound leading to complete inhibition of cell growth in relation to compound-free control wells as determined by optical density. Vancomycin, methicillin and ciprofloxicin were used as reference compounds. All assays were run in triplicate or duplicate. Experiments were replicated at least twice to verify reproducibility using the above conditions.

MRSA (ATCC BAA-1762) = test: In vitro susceptibility, broth microdilution (MIC); assay type: cell-based, methicillin resistant S. aureus; details: Staphylococcus aureus, read-out: Antimicrobial activity (MIC) MRSA ATCC BAA1762
Excerpt: as §2, §3

[1] = system: A. baumannii (ATCC 19606); test: In vitro susceptibility, broth microdilution (MIC); assay type: cell-based; details: Acinetobacter baumannii, ATCC19606; A. baumannii ATCC 19606 (values without asterisk); read-out: Antimicrobial activity (MIC) A. baumannii
Excerpt: as §2, §3

[2] = S. aureus ATCC29213, 18-24 h, 37 C, read-out: Antimicrobial activity (MIC) S. aureus ATCC29213

T1 sequence (Q6GG09 whole entry): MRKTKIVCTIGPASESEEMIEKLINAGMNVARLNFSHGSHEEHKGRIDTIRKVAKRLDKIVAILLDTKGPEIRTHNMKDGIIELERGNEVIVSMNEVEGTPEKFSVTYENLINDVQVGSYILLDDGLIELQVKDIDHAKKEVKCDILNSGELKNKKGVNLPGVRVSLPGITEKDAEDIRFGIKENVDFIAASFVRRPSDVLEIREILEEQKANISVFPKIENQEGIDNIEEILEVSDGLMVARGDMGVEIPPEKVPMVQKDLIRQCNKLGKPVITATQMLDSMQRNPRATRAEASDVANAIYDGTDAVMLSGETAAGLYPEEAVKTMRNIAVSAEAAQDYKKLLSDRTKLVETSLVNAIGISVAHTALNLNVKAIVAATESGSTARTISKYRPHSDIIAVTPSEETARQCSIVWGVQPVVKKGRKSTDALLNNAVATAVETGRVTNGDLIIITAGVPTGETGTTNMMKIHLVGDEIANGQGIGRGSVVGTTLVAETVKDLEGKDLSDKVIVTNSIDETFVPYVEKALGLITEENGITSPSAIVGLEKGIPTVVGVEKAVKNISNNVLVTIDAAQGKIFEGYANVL

| SMILES | IC50 (MRSA Pyk) [nM] | MIC (S. aureus (ATCC29213); [2]) [µg/mL] | MIC (K. pneumoniae (C238)) [µg/mL] | further results |
| --- | --- | --- | --- | --- |
| O=C(NCCCCN1CCOCC1)c1c(/C=C/c2ccc(Cl)cc2)[nH]c2cc(Br)ccc12 [Compound 45, (E)-6-Bromo-2-(4-chlorostyryl)-N-(4-morpholinobutyl)-1H-indole-3-carboxamide] | < 100 | > 64 | 32 (≈ 61.9 µM) | – |
| O=C(NCCCN1CCOCC1)c1c(/C=C/c2ccc(Cl)cc2)[nH]c2cc(Br)ccc12 [Compound 48, (E)-6-Bromo-2-(4-chlorostyryl)-N-(3-morpholinopropyl)-1H-indole-3-carboxamide] | – | > 64 | > 64 | – |
| O=C(NCCc1ccccn1)C(=O)c1c(/C=C/c2ccc(Cl)cc2)[nH]c2cc(Br)ccc12 [Compound 88, (E)-2-(6-bromo-2-(4-chlorostyryl)-1H-indol-3-yl)-2-oxo-N-(2-(pyridin-2-yl)ethyl)acetamide] | 100 to 1000 | > 64 | > 64 | – |
| CNC(=O)C(=O)c1c(CCc2ccc(Cl)cc2)[nH]c2cc(Br)ccc12 [Compound 89, 2-(6-bromo-2-(4-chlorophenethyl)-1H-indol-3-yl)-N-methyl-2-oxoacetamide] | > 1000 | > 64 | > 64 | – |
| CNC(=O)C(O)c1c(/C=C/c2ccc(Cl)cc2)[nH]c2cc(Br)ccc12 (stereo not drawn) [Compound 90, (E)-2-(6-bromo-2-(4-chlorostyryl)-1H-indol-3-yl)-2-hydroxy-N-methylacetamide] | 100 to 1000 | > 64 | > 64 | – |
| CNC(=O)Cc1c(CCc2ccc(Cl)cc2)[nH]c2cc(Br)ccc12 [Compound 91, 2-(6-Bromo-2-(4-chlorophenethyl)-1H-indol-3-yl)-N-methylacetamide] | – | > 64 | > 64 | – |
| CN(Cc1ccccc1)c1c(CCc2ccc(Cl)cc2)[nH]c2cc(Br)ccc12 [Compound 98, N-benzyl-6-bromo-2-(4-chlorophenethyl)-N-methyl-1H-indol-3-amine] | 100 to 1000 | 32 (≈ 70.5 µM) | > 64 | – |
| O=C(Nc1ccccc1)Nc1nc2cc(Br)ccc2s1 [Compound 99, 1-(5-bromobenzo[d]thiazol-2-yl)-3-phenylurea] | – | 1 (≈ 2.87 µM) | 8 (≈ 23 µM) | – |
| O=C(Nc1ccccc1)Nc1nc2ccc(Br)cc2s1 [Compound 100, 1-(6-bromobenzo[d]thiazol-2-yl)-3-phenylurea] | – | > 64 | > 64 | – |
| COCCNC(=O)CCCC(=O)c1c(-c2cc3cc(Cl)ccc3[nH]2)[nH]c2cc(Br)ccc12 [Compound 103, 5-(6-bromo-5′-chloro-1H,1′H-[2,2′-biindol]-3-yl)-N-(2-methoxyethyl)-5-oxopentanamide] | < 100 | > 64 | > 64 | – |
| O=C(CCCC(=O)c1c(-c2cc3cc(Cl)ccc3[nH]2)[nH]c2cc(Br)ccc12)NCCO [Compound 104, 5-(6-bromo-5′-chloro-1H,1′H-[2,2′-biindol]-3-yl)-N-(2-hydroxyethyl)-5-oxopentanamide] | < 100 | > 64 | > 64 | – |
| O=C(CCCC(=O)c1c(-c2cc3cc(Cl)ccc3[nH]2)[nH]c2cc(Br)ccc12)Nc1ncn[nH]1 [Compound 105, 5-(6-bromo-5′-chloro-1H,1′H-[2,2′-biindol]-3-yl)-5-oxo-N-(1H-1,2,4-triazol-5-yl)pentanamide] | < 100 | > 64 | > 64 | – |
| O=C(Cc1ccc(Cl)cc1)Nc1nc2ccc(Br)cc2s1 [Compound 109, N-(6-bromobenzo[d]thiazol-2-yl)-2-(4-chlorophenyl)acetamide] | – | > 64 | > 64 | – |
| CN(C)CCn1c(-c2ccc(Cl)cc2)nc2[nH]c3cc(Br)ccc3c2c1=O [Compound 111, 7-bromo-2-(4-chlorophenyl)-3-(2-(dimethylamino)ethyl)-3H-pyrimido[4,5-b]indol-4(9H)-one] | – | > 64 | > 64 | – |
| Cc1nc2c(cc1-c1ccc(Cl)cc1)[nH]c1cc(Br)ccc12 [Compound 113, 7-bromo-3-(4-chlorophenyl)-2-methyl-5H-pyrido[3,2-b]indole] | < 100 | > 64 | > 64 | – |
| FC(F)(F)c1ccc2sc(/C=C/c3ccc(Cl)cc3)nc2c1 [Compound 115, (E)-2-(4-chlorostyryl)-5-(trifluoromethyl)benzo[d]thiazole] | – | > 64 | > 64 | – |
| COCCC1CCCN1CCNC(=O)c1c(-c2cc3cc(Cl)ccc3[nH]2)[nH]c2cc(Br)ccc12 (stereo not drawn) [Compound 123, 6-Bromo-5′-chloro-N-(2-(2-(2-methoxyethyl)pyrrolidin-1-yl)ethyl)-1H,1′H-[2,2′-biindole]-3-carboxamide] | < 100 | 8 (≈ 14.7 µM) | – | MIC (VRE#2 (2010A); VRE#2 (2010A)): 8 µg/mL (≈ 14.7 µM); MIC (MRSA (ATCC BAA-1762); MRSA ATCC BAA-1762): 8 µg/mL (≈ 14.7 µM) |
| COCCN1CCN(CCNC(=O)c2c(-c3cc4cc(Cl)ccc4[nH]3)[nH]c3cc(Br)ccc23)CC1 [Compound 129, 6-bromo-5′-chloro-N-(2-(4-(2-methoxyethyl)piperazin-1-yl)ethyl)-1H,1′H-2,2′-biindole-3-carboxamide] | < 100 | 16 (≈ 28.6 µM) | – | MIC (VRE#2 (2010A); VRE#2 (2010A)): 16 µg/mL (≈ 28.6 µM); MIC (MRSA (ATCC BAA-1762); MRSA ATCC BAA-1762): 16 µg/mL (≈ 28.6 µM) |
| CN1CCN(CCNC(=O)c2c(-c3cc4cc(Cl)ccc4[nH]3)[nH]c3cc(Br)ccc23)C(c2ccccc2)C1 (stereo not drawn) [Compound 139, 6-Bromo-5′-chloro-N-(2-(4-methyl-2-phenylpiperazin-1-yl)ethyl)-1H,1′H-[2,2′-biindole]-3-carboxamide] | < 100 | 4 (≈ 6.77 µM) | – | MIC (VRE#2 (2010A); VRE#2 (2010A)): 8 µg/mL (≈ 13.5 µM); MIC (MRSA (ATCC BAA-1762); MRSA ATCC BAA-1762): 8 µg/mL (≈ 13.5 µM) |
| COc1cc2[nH]c(-c3cc4ccc(Br)cc4[nH]3)cc2cc1Cl [Compound 140, 6′-Bromo-5-chloro-6-methoxy-1H,1′H-2,2′-biindole] | – | > 64 | > 64 | – |
| O=C(NCCC[n+]1ccccc1)c1c(-c2cc3cc(Cl)ccc3[nH]2)[nH]c2cc(Br)ccc12 [Compound 144, 1-(3-(6-bromo-5′-chloro-1H,1′H-[2,2′-biindole]-3-carboxamido)propyl)pyridin-1-ium] | < 100 | 8 | – | MIC (VRE#2 (2010A); VRE#2 (2010A)): 16 µg/mL; MIC (MRSA (ATCC BAA-1762); MRSA ATCC BAA-1762): 16 µg/mL |
| CN(C)CCc1c(-c2nc3ccc(Cl)cc3o2)[nH]c2cc(Br)ccc12 [Compound 203, 2-(6-Bromo-2-(6-chlorobenzo[d]oxazol-2-yl)-1H-indol-3-yl)-N,N-dimethylethan-1-amine] | < 100 | – | – | MIC (VRE#2 (2010A)): 16 µg/mL (≈ 38.2 µM); MIC (MRSA (ATCC BAA-1762)): 8 µg/mL (≈ 19.1 µM); MIC (S. aureus (ATCC29213); ATCC29213, read-out: Antimicrobial activity (MIC) S. aureus ATCC29213): 8 µg/mL (≈ 19.1 µM) |
| NC(=O)Cn1c(-c2cc3ccc(Br)cc3[nH]2)nc2cc(Cl)c(Cl)cc21 [Compound 215, 2-(2-(6-Bromo-1H-indol-2-yl)-5,6-dichloro-1H-benzo[d]imidazol-1-yl)acetamide] | – | > 64 | – | MIC [1]: > 64 µg/mL |
| CC(C)(C)OC(=O)N1CCN(C(=O)c2c(-c3cc4cc(Cl)ccc4[nH]3)[nH]c3cc(Br)ccc23)C(C(=O)O)C1 (stereo not drawn) [Compound 224, 1-(6-bromo-5′-chloro-1H,1′H-[2,2′-biindole]-3-carbonyl)-4-(tert-butoxycarbonyl)piperazine-2-carboxylic Acid] | < 100 | 32 (≈ 53.2 µM) | – | MIC (VRE#2 (2010A); VRE#2 (2010A)): 32 µg/mL (≈ 53.2 µM); MIC (MRSA (ATCC BAA-1762); MRSA ATCC BAA-1762): 32 µg/mL (≈ 53.2 µM) |
